Data published in the supplement of paper PMC10331698.
± gives the standard deviation of the averaged measurements.

How the values were obtained:
Assay in all cases: level (log10 ratio to DMSO vehicle control); higher = higher biomarker level / cell amount than vehicle control
[1] = compound: C=C(C)C(=O)OCCC(F)(F)C(F)(F)C(F)(F)C(F)(F)C(F)(F)C(F)(F)F [6:2 Fluorotelomer methacrylate]; details: in DMSO
Description: (§1)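 BioMAP Diversity Plus panel of 12 human primary cell co-culture systems (3C, 4H, LPS, SAg, BT, BF4T, BE3C, CASM3C, HDF3CGF, KF3CT, MyoF, Mphg). Compounds were added 1 h before stimulation and left for 24 h (MyoF 48 h; BT 72 h for soluble read-outs or 6 d for IgG). Biomarkers were read by ELISA, cytotoxicity by SRB, PBMC viability and proliferation by Alamar Blue. Each well value was divided by the mean of 8 DMSO control wells on the same plate and log10 transformed; duplicate blinded samples were tested at 4 concentrations.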

[2] = compound: C=CC(=O)OCC(F)(F)C(F)(F)C(F)(F)COC(=O)C=C [1H,1H,5H,5H-Perfluoro-1,5-pentanediol diacrylate]; details: 6700 nM; in DMSO
Description: as §1

[3] = compound: COC(=O)C(F)(F)C(F)(F)OC(F)(C(F)(F)F)C(F)(F)OC(F)=C(F)F [Methyl perfluoro(3-(1-ethenyloxypropan-2-yloxy)propanoate)]; details: in DMSO
Description: as §1

[4] = compound: FC(F)(F)C(F)(F)C(F)(F)C(F)(F)C(F)(F)C(F)(F)C(F)(F)I [1-Iodopentadecafluoroheptane]; details: in DMSO
Description: as §1

[5] = compound: FC(F)(F)C(F)(F)C(F)(F)C(F)(F)C(F)(F)C(F)(F)CC1CO1 [3-(Perfluorohexyl)-1,2-epoxypropane]; details: in DMSO
Description: as §1

[6] = compound: FC(F)(F)C(F)(F)C(F)(F)CC1CO1 [1H,1H-Heptafluorobutyl epoxide]; details: in DMSO
Description: as §1

Heptafluorobutyl iodide = compound: FC(F)(F)C(F)(F)C(F)(F)CI [Heptafluorobutyl iodide]; details: in DMSO
Description: as §1

[7] = compound: FC(F)(F)C(F)(F)CNCC(F)(F)C(F)(F)F [Bis(1H,1H-perfluoropropyl)amine]; details: in DMSO
Description: as §1

Octafluoroadipamide = compound: NC(=O)C(F)(F)C(F)(F)C(F)(F)C(F)(F)C(N)=O [Octafluoroadipamide]; details: in DMSO
Description: as §1

Nonafluoropentanamide = compound: NC(=O)C(F)(F)C(F)(F)C(F)(F)C(F)(F)F [Nonafluoropentanamide]; details: in DMSO
Description: as §1

[8] = compound: NC(=O)C(F)(F)C(F)(F)C(F)(F)C(F)F; details: in DMSO
Description: as §1

[9] = compound: NS(=O)(=O)C(F)(F)C(F)(F)C(F)(F)C(F)(F)C(F)(F)C(F)(F)F [Perfluorohexanesulfonamide]; details: in DMSO
Description: as §1

[10] = compound: O=C(O)C(F)(F)C(F)(F)C(F)(F)C(F)(F)C(F)(F)C(F)(F)C(F)(F)C(F)(F)C(F)(F)C(F)F [11-H-Perfluoroundecanoic acid]; details: in DMSO
Description: as §1

[11] = compound: O=C(O)C=CC(F)(C(F)(F)F)C(F)(F)F [3-(Perfluoroisopropyl)-2-propenoic acid]; details: in DMSO
Description: as §1

[12] = compound: O=S(=O)(Cl)C(F)(F)C(F)(F)C(F)(F)C(F)(F)C(F)(F)C(F)(F)C(F)(F)C(F)(F)F [Perfluoro-1-octanesulfonyl chloride]; details: in DMSO
Description: as §1

[13] = compound: O=S(=O)(F)C(F)(F)C(F)(F)C(F)(F)C(F)(F)C(F)(F)C(F)(F)C(F)(F)C(F)(F)F [Perfluorooctanesulfonyl fluoride]; details: in DMSO
Description: as §1

[14] = compound: O=S(=O)(O)C(F)(F)C(F)(F)C(F)(F)C(F)(F)C(F)(F)C(F)(F)C(F)(F)C(F)(F)C(F)(F)C(F)(F)F [Sodium perfluorodecanesulfonate]; details: in DMSO
Description: as §1

[15] = compound: O=S(=O)(O)CCC(F)(F)C(F)(F)C(F)(F)C(F)(F)C(F)(F)C(F)(F)F [6:2 Fluorotelomer sulfonic acid]; details: in DMSO
Description: as §1

Hexafluoroamylene glycol = compound: OCC(F)(F)C(F)(F)C(F)(F)CO [Hexafluoroamylene glycol]; details: in DMSO
Description: as §1

In the case of BF4T:uPA, the “level (log10)” value ([1]; 6700 nM) is reported as -0.006 ± 0.0057, the “level (log10)” value ([1]; 20000 nM) is reported as 0.0005 ± 0.026 and the “level (log10)” value ([1]; 60000 nM) is reported as 0.006 ± 0.011. For the same test system, the “level (log10)” value [2] was -0.019 ± 0.013, the “level (log10)” value ([3]; 6700 nM) was -0.0075 ± 0.0064 and the “level (log10)” value ([3]; 20000 nM) was 0.02 ± 0.0028. For the same test system, the “level (log10)” value ([4]; 6700 nM) was -0.0365 ± 0.016, the “level (log10)” value ([4]; 20000 nM) was -0.026 ± 0.016 and the “level (log10)” value ([5]; 6700 nM) was -0.0045 ± 0.011. The “level (log10)” value ([5]; 20000 nM) was -0.0115 ± 0.0064, the “level (log10)” value ([5]; 60000 nM) was 0.012 ± 0.04 and the “level (log10)” value ([6]; 6700 nM) was -0.0065 ± 0.013. The “level (log10)” value ([6]; 20000 nM) was 0.0025 ± 0.022, the “level (log10)” value ([6]; 60000 nM) was -0.028 ± 0.034 and the “level (log10)” value (Heptafluorobutyl iodide; 6700 nM) was -0.008 ± 0.014. The “level (log10)” value (Heptafluorobutyl iodide; 20000 nM) was -0.0095 ± 0.022, the “level (log10)” value (Heptafluorobutyl iodide; 60000 nM) was -0.0045 ± 0.016 and the “level (log10)” value ([7]; 6700 nM) was -0.025 ± 0.011. The “level (log10)” value ([7]; 20000 nM) was -0.0205 ± 0.013, the “level (log10)” value ([7]; 60000 nM) was -0.0165 ± 0.0092 and the “level (log10)” value (Octafluoroadipamide; 6700 nM) was -0.0405 ± 0.0092. For the same test system, the “level (log10)” value (Octafluoroadipamide; 20000 nM) was -0.0325 ± 0.021, the “level (log10)” value (Octafluoroadipamide; 60000 nM) was -0.0165 ± 0.026 and the “level (log10)” value (Nonafluoropentanamide; 6700 nM) was -0.03 ± 0.023. For the same test system, the “level (log10)” value (Nonafluoropentanamide; 20000 nM) was 0.009 ± 0.013, the “level (log10)” value (Nonafluoropentanamide; 60000 nM) was 0.025 ± 0.0014 and the “level (log10)” value ([8]; 6700 nM) was -0.001 ± 0.023. The “level (log10)” value ([8]; 20000 nM) was -0.0145 ± 0.015, the “level (log10)” value ([8]; 60000 nM) was -0.004 ± 0.021 and the “level (log10)” value ([9]; 6700 nM) was -0.003 ± 0.0042. The “level (log10)” value ([9]; 20000 nM) was 0.0005 ± 0.0035, the “level (log10)” value ([9]; 60000 nM) was -0.01 ± 0.011 and the “level (log10)” value ([10]; 6700 nM) was -0.0095 ± 0.036. For the same test system, the “level (log10)” value ([10]; 20000 nM) was -0.051 ± 0.038, the “level (log10)” value ([11]; 6700 nM) was -0.007 ± 0.016 and the “level (log10)” value ([11]; 20000 nM) was -0.016 ± 0.0057. For the same test system, the “level (log10)” value ([11]; 60000 nM) was 0.0065 ± 0.018, the “level (log10)” value ([12]; 6700 nM) was -0.028 ± 0.03 and the “level (log10)” value ([12]; 20000 nM) was -0.025 ± 0.025. The “level (log10)” value ([12]; 60000 nM) was -0.113 ± 0.046, the “level (log10)” value ([13]; 6700 nM) was 0.007 ± 0.0028 and the “level (log10)” value ([13]; 20000 nM) was 0 ± 0.011. The “level (log10)” value ([13]; 60000 nM) was 0.0095 ± 0.0092, the “level (log10)” value ([14]; 1500 nM) was 0.0165 ± 0.0035 and the “level (log10)” value ([14]; 4400 nM) was 0.013 ± 0.017. For the same test system, the “level (log10)” value ([14]; 13000 nM) was 0.0415 ± 0.005, the “level (log10)” value ([14]; 40000 nM) was 0.06 ± 0.027 and the “level (log10)” value ([15]; 6700 nM) was 0.0085 ± 0.019. The “level (log10)” value ([15]; 20000 nM) was -0.013 ± 0.0028, the “level (log10)” value ([15]; 60000 nM) was -0.001 ± 0.018 and the “level (log10)” value (Hexafluoroamylene glycol; 6700 nM) was -0.0065 ± 0.021. The “level (log10)” value (Hexafluoroamylene glycol; 20000 nM) was -0.006 ± 0.014 and the “level (log10)” value (Hexafluoroamylene glycol; 60000 nM) was 0.004 ± 0.0057.
